Laboratory results as given in patent US7855202B2, “Imidazopyridine derivatives as A2B adenosine receptor antagonists” (Laboratorios Almirall, S.A., priority 2005, dated 2010).

Target: T1, human A2B receptor (Homo sapiens, UniProt P29275)
T1 construct: membranes prepared from them
T1 sequence (P29275 1-332): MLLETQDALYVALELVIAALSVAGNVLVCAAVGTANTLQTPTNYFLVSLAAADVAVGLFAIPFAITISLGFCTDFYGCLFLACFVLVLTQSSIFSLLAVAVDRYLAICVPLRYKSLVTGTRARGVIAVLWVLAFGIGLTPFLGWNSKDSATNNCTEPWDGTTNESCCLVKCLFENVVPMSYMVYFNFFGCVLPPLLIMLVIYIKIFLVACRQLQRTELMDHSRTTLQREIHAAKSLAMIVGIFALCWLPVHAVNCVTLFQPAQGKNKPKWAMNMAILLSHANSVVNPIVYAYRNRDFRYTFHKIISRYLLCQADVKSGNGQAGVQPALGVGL
Test: Adenosine 2B receptor subtype competition radioligand binding assay ([3H]-DPCPX, membranes of HEK293 cells)
Details: binding activity, 35 nM [3H]-DPCPX, A2B membranes from HEK293 cells
Description: Adenosine 2B Receptor Subtype Competition Radioligand Binding Assay
A2B membranes were prepared from HEK293 cells stably expressing the human A2B receptor that were purchased from Euroscreen (ES-013-C). Competition assays were carried out incubating in polypropylene 96 well-plates (no 267245, NUNC) containing 2 μl of either 1% DMSO solution, test compound or 100 μM 5′NECA (SIGMA E-2387) for non-specific binding, 100 μg of A2B-membranes (prepared in Tris-HCl 50 mM pH 6.5, MgCl2 10 mM, EDTA 1 mM, benzamidine 0.1 mM; buffer A) and 35 nM [^3H]-DPCPX (TRK1064, 128 Ci/mmol, Amersham), in a total volume of 200 μl of buffer A+2 UI/ml adenosine deaminase, for 60 minutes at room temperature. At the end of the incubation, samples were transferred to a GF/C filter plates (Milipore MAFCNOB50) pretreated for 15 min. with 250 μl of Tris-HCl 50 mM pH 6.5 (Buffer B). Samples were then filtered 4 times with 250 μl of buffer B. Samples were counted using 30 μl of Hisafe II (Perkin Elmer) in a Trilux counter.

Ki	SMILES
8 nM	O=C(O)c1ccc(-c2nc3cc(-c4ccncc4F)c(-c4cccnc4)nc3[nH]2)cc1 [Example 11, 4-[6-(3-Fluoropyridin-4-yl)-5-pyridin-3-yl-3H-imidazo[4,5-b]pyridin-2-yl]benzoic acid]
1.8 nM	Fc1cnccc1-c1cc2nc(-c3ccncc3)[nH]c2nc1-c1cccnc1 [Example 12, 6-(3-Fluoropyridin-4-yl)-5-pyridin-3-yl-2-pyridin-4-yl-3H-imidazo[4,5-b]pyridine]
24 nM	Fc1ccc(Cc2nc3cc(-c4ccncc4F)c(-c4cccnc4)nc3[nH]2)cc1 [Example 16, 2-(4-Fluorobenzyl)-6-(3-fluoropyridin-4-yl)-5-pyridin-3-yl-3H-imidazo[4,6-b]pyridine]
7 nM	O=c1[nH]c2cc(-c3ccncc3)c(-c3ccncc3F)nc2[nH]1 [Example 23, 5-(3-Fluoropyridin-4-yl)-6-pyridin-4-yl-1,3-dihydro-2H-imidazo[4,5-b]pyridin-2-one]
2.2 nM	Cc1ccc(-c2nc3cc(-c4ccncc4F)c(-c4cccnc4)nc3[nH]2)cc1F [Example 37, 2-(3-Fluoro-4-methylphenyl)-6-(3-fluoropyridin-4-yl)-5-pyridin-3-yl-3H-imidazo[4,5-b]pyridine]
3.8 nM	Fc1cnccc1-c1cc2nc(-c3cccnc3)[nH]c2nc1-c1cccnc1 [Example 39, 6-(3-Fluoropyridin-4-yl)-2,5-dipyridin-3-yl-3H-imidazo[4,5-b]pyridine]
23 nM	O=C(O)c1ccc(-c2nc3cc(-c4c(F)cncc4F)c(-c4cccnc4)nc3[nH]2)cc1 [Example 66, 4-[6-(3,5-Difluoropyridin-4-yl)-5-pyridin-3-yl-3H-imidazo[4,5-b]pyridin-2-yl]benzoic acid]
26 nM	O=c1[nH]c2cc(-c3c(F)cncc3F)c(-c3cccnc3)nc2[nH]1 [Example 67, 6-(3,5-Difluoropyridin-4-yl)-5-pyridin-3-yl-1,3-dihydro-2H-imidazo[4,5-b]pyridin-2-one]

Second part, the compound before the results:

SMILES	Ki
COc1ccc(-c2nc3cc(-c4ccncc4F)c(-c4cccnc4)nc3[nH]2)cc1 [Example 6, 6-(3-Fluoropyridin-4-yl)-2-(4-methoxyphenyl)-6-pyridin-3-yl-3H-imidazo[4,5-b]pyridine]	0.8 nM
CN(C)c1ccc(-c2nc3cc(-c4ccncc4F)c(-c4cccnc4)nc3[nH]2)cc1 [Example 7, N-{4-[6-(3-Fluoropyridin-4-yl)-5-pyridin-3-yl-3H-imidazo[4,5-b]pyridin-2-yl]phenyl}-N,N-dimethylamine]	1.7 nM
O=c1[nH]c2cc(-c3ccncc3F)c(-c3ncco3)nc2[nH]1 [Example 32, 6-(3-Fluoropyridin-4-yl)-5-(1,3-oxazol-2-yl)-1,3-dihydro-2H-imidazo[4,5-b]pyridin-2-one]	24 nM
Fc1cccc(-c2nc3cc(-c4ccncc4F)c(-c4cccnc4)nc3[nH]2)c1 [Example 38, 2-(3-Fluorophenyl)-6-(3-fluoropyridin-4-yl)-5-pyridin-3-yl-3H-imidazo[4,6-b]pyridine]	2.8 nM
Cn1cncc1-c1nc2cc(-c3ccncc3F)c(-c3cccnc3)nc2[nH]1 [Example 46, 6-(3-Fluoropyridin-4-yl)-2-(1-methyl-1H-imidazol-5-yl)-5-pyridin-3-yl-3H-imidazo[4,5-b]pyridine]	9.5 nM
Fc1ccc(-c2nc3cc(-c4c(F)cncc4F)c(-c4cccnc4)nc3[nH]2)cc1 [Example 65, 6-(3,5-Difluoropyridin-4-yl)-2-(4-fluorophenyl)-5-pyridin-3-yl-3H-imidazo[4,5-b]pyridine]	2.8 nM
